Data on 26 molecules can be found in patent US10722501B2 (BAYER AKTIENGESELLSCHAFT, priority 2016, dated 2020).

Each structure is given as a SMILES string.

What is called IC50 is the midpoint of a concentration-inhibition curve.

This experiment addresses T1, recombinant full-length human prolyl endopeptidase (PREP) (Homo sapiens, UniProt P48147).
T1 construct: To recombinant full-length human prolyl endopeptidase (PREP, R&D-Systems, 4308-SE); purchased R&D-Systems 4308-SE
T1 sequence (P48147 1-710): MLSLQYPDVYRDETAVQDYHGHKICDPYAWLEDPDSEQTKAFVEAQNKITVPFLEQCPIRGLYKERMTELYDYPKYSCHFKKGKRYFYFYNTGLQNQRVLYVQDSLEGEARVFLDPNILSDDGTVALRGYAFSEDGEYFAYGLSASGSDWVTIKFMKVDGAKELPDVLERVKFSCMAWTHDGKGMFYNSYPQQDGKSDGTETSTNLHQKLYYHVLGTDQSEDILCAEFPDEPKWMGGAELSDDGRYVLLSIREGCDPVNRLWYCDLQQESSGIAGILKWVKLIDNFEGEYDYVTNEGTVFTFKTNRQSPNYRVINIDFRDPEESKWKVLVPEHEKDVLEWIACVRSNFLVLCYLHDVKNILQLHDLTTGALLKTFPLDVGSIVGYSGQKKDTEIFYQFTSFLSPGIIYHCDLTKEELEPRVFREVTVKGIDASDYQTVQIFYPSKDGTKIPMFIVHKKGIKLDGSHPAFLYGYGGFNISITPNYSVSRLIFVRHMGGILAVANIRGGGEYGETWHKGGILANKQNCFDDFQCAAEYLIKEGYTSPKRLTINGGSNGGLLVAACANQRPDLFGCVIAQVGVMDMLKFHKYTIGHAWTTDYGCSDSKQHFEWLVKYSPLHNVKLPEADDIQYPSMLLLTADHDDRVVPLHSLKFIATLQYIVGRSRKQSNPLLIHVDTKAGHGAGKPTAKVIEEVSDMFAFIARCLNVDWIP
The experiment is described as follows: Biochemical human prolyl endopeptidase (PREP) assay with fluorescently labelled substrate. Conditions: substrate Z-Gly-Pro-AMC 50 μM, 32° C., 60 min; some as mean values from multiple independent determinations. The method in brief: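 0.4 nM (final, example) recombinant PREP in pH 7.5 Tris buffer with EDTA, GSH, BSA and Brij-35; compounds at 1 nM to 30 μM. Reaction started with 50 μM Z-Gly-Pro-AMC and followed by fluorescence (ex 360/em 465 nm) at 32° C for 60 min. IC50 interpolated from percent activity based on initial slopes.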
For `COc1ccc(Cn2nc3n(c2=O)[C@H](C(=O)N2CCC[C@H]2C#N)CCC3)cn1` [Example 432, (2S)-1-({(5S)-2-[(6-Methoxypyridin-3-yl)methyl]-3-oxo-2,3,5,6,7,8-hexahydro[1,2,4]triazolo[4,3-a]pyridin-5-yl}carbonyl)pyrrolidine-2-carbonitrile], the IC50 turned out to be 0.13 nM. As to `COc1ccc(CCn2nc3n(c2=O)[C@H](C(=O)N2CC(F)C2)CCC3)cc1` [Example 347, (5S)-5-[(3-Fluoroazetidin-1-yl)carbonyl]-2-[2-(4-methoxyphenyl)ethyl]-5,6,7,8-tetrahydro[1,2,4]triazolo[4,3-a]pyridin-3(2H)-one], the IC50 came to 4.8 nM. With `O=C(C1CC(C(F)(F)F)Cc2nn(Cc3ncc(F)cc3Cl)c(=O)n21)N1CC[C@H](F)C1` (single isomer, unassigned) [Example 572] the figure was 1.4 nM; with `Cc1ccc(Cn2nc3n(c2=O)[C@H](C(=O)N2CC[S+]([O-])C2)CCC3)cc1` (mixture of isomers) [Example 141, (5S)-2-(4-Methylbenzyl)-5-{[(1 RS)-1-oxido-1,3-thiazolidin-3-yl]carbonyl}-5,6,7,8-tetrahydro[1,2,4]triazolo[4,3-a]pyridin-3(2H)-one], 0.83 nM. Turning to `O=C(O)c1ccc(Cn2nc3n(c2=O)C(C(=O)N2CCCC2)CCC3)cc1` (racemic) [Example 154, 4-{[(5RS)-3-Oxo-5-(pyrrolidin-1-ylcarbonyl)-5,6,7,8-tetrahydro[1,2,4]triazolo[4,3-a]pyridin-2(3H)-yl]methyl}benzoic acid], the IC50 was determined as 790 nM. As for `N#C[C@@H]1CCCN1C(=O)[C@@H]1CCCc2nn(Cc3ncc(Cl)cc3Cl)c(=O)n21` [Example 513, (2S)-1-({(5S)-2-[(3,5-Dichloropyridin-2-yl)methyl]-3-oxo-2,3,5,6,7,8-hexahydro[1,2,4]triazolo[4,3-a]pyridin-5-yl}carbonyl)pyrrolidine-2-carbonitrile], the IC50 turned out to be 0.13 nM.

Take `Cc1cc(Cn2nc3n(c2=O)C(C(=O)N2CCCC2)CCC3)on1` (racemic) [Example 13, (5RS)-2-[(3-Methyl-1,2-oxazol-5-yl)methyl]-5-(pyrrolidin-1-ylcarbonyl)-5,6,7,8-tetrahydro[1,2,4]triazolo[4,3-a]pyridin-3(2H)-one]: the IC50 was determined as 5.4 nM. In the case of `NS(=O)(=O)c1ccc(Cn2nc3n(c2=O)C(C(=O)N2CCCC2)CCC3)cc1` (racemic) [Example 29, 4-{[(5RS)-3-Oxo-5-(pyrrolidin-1-ylcarbonyl)-5,6,7,8-tetrahydro[1,2,4]triazolo[4,3-a]pyridin-2(3H)-yl]methyl}benzenesulphonamide], the IC50 stood at 1.2 nM.

Regarding `Cc1ccc(Cn2nc3n(c2=O)C(C(=O)N2CC(C(F)(F)F)C2)CCC3)cc1` (racemic) [Example 124, (5RS)-2-(4-Methylbenzyl)-5-{[3-(trifluoromethyl)azetidin-1-yl]carbonyl}-5,6,7,8-tetrahydro[1,2,4]triazolo[4,3-a]pyridin-3(2H)-one], the IC50 was 14 nM.

With `O=C(C1CCc2nn(Cc3ccc(C(F)(F)F)nc3)c(=O)n21)N1CC(F)C1` (racemic) [Example 170, (5RS)-5-[(3-Fluoroazetidin-1-yl)carbonyl]-2-{[6-(trifluoromethyl)pyridin-3-yl]methyl}-2,5,6,7-tetrahydro-3H-pyrrolo[2,1-c][1,2,4]triazol-3-one], the IC50 stood at 90 nM. Turning to `CS(=O)(=O)c1ccc(Cn2nc3n(c2=O)C(C(=O)N2CCCC2)CCC3)cc1` (racemic) [Example 6, (5RS)-2-[4-(Methylsulphonyl)benzyl]-5-(pyrrolidin-1-ylcarbonyl)-5,6,7,8-tetrahydro[1,2,4]triazolo[4,3-a]pyridin-3(2H)-one], the IC50 came to 120 nM. As to `Cc1ccc(Cn2nc3n(c2=O)C(C(=O)N2CCC(F)(CO)C2)CCC3)cc1` (mixture of isomers) [Example 147, (5S)-5-{[(3RS)-3-Fluoro-3-(hydroxymethyl)pyrrolidin-1-yl]carbonyl}-2-(4-methylbenzyl)-5,6,7,8-tetrahydro[1,2,4]triazolo[4,3-a]pyridin-3(2H)-one], the IC50 is 70 nM.

With `Cc1ccc(C2(Cn3nc4n(c3=O)[C@H](C(=O)N3CCC(F)(F)C3)CCC4)CC2)cc1` [Example 524, (5S)-5-[(3,3-Difluoropyrrolidin-1-yl)carbonyl]-2-{[1-(4-methylphenyl)cyclopropyl]methyl}-5,6,7,8-tetrahydro[1,2,4]triazolo[4,3-a]pyridin-3(2H)-one], the IC50 amounted to 2.9 nM. Consider `O=C([C@@H]1CCCc2nn(Cc3ncc(F)cc3F)c(=O)n21)N1CC(F)C1` [Example 410, (5S)-2-[(3,5-Difluoropyridin-2-yl)methyl]-5-[(3-fluoroazetidin-1-yl)carbonyl]-5,6,7,8-tetrahydro[1,2,4]triazolo[4,3-a]pyridin-3(2H)-one], for which the IC50 was found to be 7.7 nM. With `O=C(C1CCCc2nn(Cc3ccc(F)c(C(F)(F)F)c3)c(=O)n21)N1CC[C@H](O)C1` (mixture of isomers) [Example 101, (5RS)-2-[4-Fluoro-3-(trifluoromethyl)benzyl]-5-{[(3S)-3-hydroxypyrrolidin-1-yl]carbonyl}-5,6,7,8-tetrahydro[1,2,4]triazolo[4,3-a]pyridin-3(2H)-one] the figure was 3.05 nM; with `O=C(C1CCCc2nn(Cc3cc(C(F)(F)F)ccc3C(F)(F)F)c(=O)n21)N1CCCC1` (racemic) [Example 65, (5RS)-2-[2,5-Bis(trifluoromethyl)benzyl]-5-(pyrrolidin-1-ylcarbonyl)-5,6,7,8-tetrahydro[1,2,4]triazolo[4,3-a]pyridin-3(2H)-one], 1.85 nM; with `O=C(C1CCc2nn(Cc3ccc(C(F)(F)F)nc3)c(=O)n21)N1C[C@@H](F)[C@@H](F)C1` (mixture of isomers) [Example 173, (5RS)-5-{[(3R,4S)-3,4-Difluoropyrrolidin-1-yl]carbonyl}-2-{[6-(trifluoromethyl)pyridin-3-yl]methyl}-2,5,6,7-tetrahydro-3H-pyrrolo[2,1-c][1,2,4]triazol-3-one], 5.85 nM. With `O=C(C1CCc2nn(Cc3ccc(F)c(Cl)c3)c(=O)n21)N1C[C@@H](F)[C@@H](F)C1` (mixture of isomers) [Example 174, (5RS)-2-(3-Chloro-4-fluorobenzyl)-5-{[(3R,4S)-3,4-difluoropyrrolidin-1-yl)carbonyl]-2,5,6,7-tetrahydro-3H-pyrrolo[2,1-c][1,2,4]triazol-3-one] the figure was 1.15 nM; with `O=C(C1CCCc2nn(Cc3cccc(Cl)c3)c(=O)n21)N1CCCC1` (racemic) [Example 38, (5RS)-2-(3-Chlorobenzyl)-5-(pyrrolidin-1-ylcarbonyl)-5,6,7,8-tetrahydro[1,2,4]triazolo[4,3-a]pyridin-3(2H)-one], 1 nM.

As for `CC1Cc2nn(Cc3ccc(C(F)(F)F)nc3)c(=O)n2C(C(=O)N2C[C@@H](F)[C@@H](F)C2)C1` (single isomer, unassigned) [Example 338], the IC50 was 1.5 nM. Consider `O=C(C1CC(C(F)(F)F)Cc2nn(Cc3ccc(Cl)nc3)c(=O)n21)N1CC[C@@H](F)C1` (single isomer, unassigned) [Example 247], for which the IC50 came to 910 nM.

Regarding `O=C(C1CC(C(F)(F)F)Cc2nn(Cc3ncc(Cl)cc3F)c(=O)n21)N1CC[C@H](F)C1` (mixture of isomers) [Example 264, (5RS,7RS)-2-[(5-Chloro-3-fluoropyridin-3-yl)methyl]-5-{[(3S)-3-fluoropyrrolidin-1-yl]carbonyl}-7-(trifluoromethyl)-5,6,7,8-tetrahydro[1,2,4]triazolo[4,3-a]pyridin-3(2H)-one], the IC50 came to 2.55 nM.

On to `Cc1ccccc1Cn1nc2n(c1=O)C(C(=O)N1CCCC1)CCC2` (racemic) [Example 58, (5RS)-2-(2-Methylbenzyl)-5-(pyrrolidin-1-ylcarbonyl)-5,6,7,8-tetrahydro[1,2,4]triazolo[4,3-a]pyridin-3(2H)-one], for which the IC50 was 4 nM. `Cc1ccc(Cn2nc3n(c2=O)C(C(=O)N2CC=CCC2)CCC3)cc1` (racemic) [Example 158, (5RS)-5-(3,6-Dihydropyridin-1 (2H)-ylcarbonyl)-2-(4-methylbenzyl)-5,6,7,8-tetrahydro[1,2,4]triazolo[4,3-a]pyridin-3(2H)-one]: the IC50 was 8.9 nM. Then `Cc1ccc(Cn2nc3n(c2=O)[C@H](C(=O)N2CCC4CC42)CCC3)cc1` (single isomer, unassigned) [Example 188], with 0.091 nM; and `O=C([C@@H]1CCCc2nn(Cc3cncc(Cl)c3)c(=O)n21)N1CCC(F)(F)C1` [Example 435, (5S)-2-[(5-Chloropyridin-3-yl)methyl]-5-[(3,3-difluoropyrrolidin-1-yl)carbonyl]-5,6,7,8-tetrahydro[1,2,4]triazolo[4,3-a]pyridin-3(2H)-one], with 2.65 nM.
